Read-outs that look alike come from different tables or passages of the source.
Biological target: human Gal-3 (hGal-3) (Homo sapiens (Human), UniProt P17931)
Assay: competitive binding assay: biotinylated hGal-3 binding to microplate-adsorbed asialofetuin (ASF)
Experimental: If not explicitly mentioned otherwise, the inhibition data refer to the binding of biotinylated human Gal-3 (hGal-3).
Evaluation of Compound Inhibitory Activity (IC50)
The inhibitory activity of compounds is determined in competitive binding assays.
Briefly, compounds are serially diluted in DMSO (working dilutions).
Plates are incubated for 3 hours at 4° C., then washed with cold assay buffer (3×50 uL), incubated for 1 hour with 25 μL/well of a streptavidin-peroxidase solution (diluted in assay buffer to 80 ng/mL) at 4° C., followed by further washing steps with assay buffer (3×50 uL). Finally, 25 μL/well of ABTS substrate is added.
The calculated IC50 values may fluctuate depending on the daily assay performance. Fluctuations of this kind are known to those skilled in the art. IC50 values from several measurements are given as mean values.

[1] = Table 11, read-out: IC50 (Gal-3 inhibition)
[2] = Table 14, read-out: IC50 (Gal-3 inhibition)
[3] = Gal-3 inhibition, binding of biotinylated hGal-3 to ASF, mean values, read-out: IC50

human Gal-3 (hGal-3), sequence (P17931 whole entry): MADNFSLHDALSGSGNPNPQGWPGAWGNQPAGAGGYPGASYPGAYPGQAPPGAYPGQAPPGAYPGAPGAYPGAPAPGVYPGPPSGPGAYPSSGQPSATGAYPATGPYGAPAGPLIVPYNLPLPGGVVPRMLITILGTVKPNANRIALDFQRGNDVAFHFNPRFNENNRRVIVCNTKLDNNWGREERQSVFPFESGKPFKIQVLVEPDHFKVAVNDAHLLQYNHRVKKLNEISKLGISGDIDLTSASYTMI

SMILES | IC50 [3] | other results
CO[C@@H]1[C@@H](n2cc(-c3cc(F)c(F)c(F)c3)nn2)[C@@H](O)[C@@H](CO)O[C@H]1S[C@@H](c1ncccc1C)[C@]1(O)CCOC(C)(C)C1 [Example 2.43.126SS.I., (2R,3R,4S,5R,6S)-6-(((S)-((S)-4-Hydroxy-2,2-dimethyltetrahydro-2H-pyran-4-yl)(3-methylpyridin-2-yl)methyl)thio)-2-(hydroxymethyl)-5-methoxy-4-(4-(3,4,5-trifluorophenyl)-1H-1,2,3-triazol-1-yl)tetrahydro-2H-pyran-3-ol] |  | IC50 [1]: 1900 nM
CO[C@@H]1[C@@H](n2cc(-c3ccc(F)c(F)c3F)nn2)[C@@H](O)[C@@H](CO)O[C@H]1SC(c1ncccc1C)C1(O)CCC(F)(F)CC1 (stereo partly drawn) [Example 21.44.126.I., (2R,3R,4S,5R,6S)-6-(((4,4-Difluoro-1-hydroxycyclohexyl)(3-methylpyridin-2-yl)methyl)thio)-2-(hydroxymethyl)-5-methoxy-4-(4-(2,3,4-trifluorophenyl)-1H-1,2,3-triazol-1-yl)tetrahydro-2H-pyran-3-ol] |  | IC50 [2]: 60 nM
CS(=O)(=O)N1CC(O)(C(S[C@@H]2O[C@H](CO)[C@H](O)[C@H](n3cc(-c4cc(F)c(F)c(F)c4)nn3)[C@H]2O)c2ccccc2C(F)(F)F)C1 (stereo partly drawn) [Example 2..57.112., (2S,3R,4S,5R,6R)-2-(((3-Hydroxy-1-(methylsulfonyl)azetidin-3-yl)(2-(trifluoromethyl)phenyl)methyl)thio)-6-(Hydroxymethyl)-4-(4-(3,4,5-trifluorophenyl)-1H-1,2,3-triazol-1-yl)tetrahydro-2H-pyran-3,5-diol] | 220 nM | 
CO[C@@H]1[C@@H](n2cc(-c3cc(F)c(F)c(F)c3)nn2)[C@@H](O)[C@@H](CO)O[C@H]1S[C@H](c1ncccc1C)[C@@]1(O)CCOC(C)(C)C1 [Example 2.43.126RR.I., (2R,3R,4S,5R,6S)-6-(((R)-((R)-4-Hydroxy-2,2-dimethyltetrahydro-2H-pyran-4-yl)(3-methylpyridin-2-yl)methyl)thio)-2-(hydroxymethyl)-5-methoxy-4-(4-(3,4,5-trifluorophenyl)-1H-1,2,3-triazol-1-yl)tetrahydro-2H-pyran-3-ol] |  | IC50 [1]: 730 nM
CO[C@@H]1[C@@H](n2cc(-c3cnc(F)c(C)c3)nn2)[C@@H](O)[C@@H](CO)O[C@H]1SC(c1ncccc1C)C1(O)CCC(F)(F)CC1 (stereo partly drawn) [Example 24.44.126.I., (2R,3R,4S,5R,6S)-6-(((4,4-Difluoro-1-hydroxycyclohexyl)(3-methylpyridin-2-yl)methyl)thio)-4-(4-(6-fluoro-5-methylpyridin-3-yl)-1H-1,2,3-triazol-1-yl)-2-(hydroxymethyl)-5-methoxytetrahydro-2H-pyran-3-ol] |  | IC50 [2]: 330 nM
CS(=O)(=O)N1CCC(O)(C(S[C@@H]2O[C@H](CO)[C@H](O)[C@H](n3cc(-c4cc(F)c(F)c(F)c4)nn3)[C@H]2O)c2ccccc2C(F)(F)F)CC1 (stereo partly drawn) [Example 2.47.112., (2S,3R,4S,5R,6R)-2-(((4-Hydroxy-1-(methylsulfonyl)piperidin-4-yl)(2-(trifluoromethyl)phenyl)methyl)thio)-6-(hydroxymethyl)-4-(4-(3,4,5-trifluorophenyl)-1H-1,2,3-triazol-1-yl)tetrahydro-2H-pyran-3,5-diol] | 70 nM | 
OC[C@H](S[C@@H]1O[C@H](CO)[C@H](O)[C@H](n2cc(-c3cc(F)c(F)c(F)c3)nn2)[C@H]1O)c1ccccc1 [Example 2.30.100R., (2S,3R,4S,5R,6R)-2-(((R)-2-Hydroxy-1-phenylethyl)thio)-6-(hydroxymethyl)-4-(4-(3,4,5-trifluorophenyl)-1H-1,2,3-triazol-1-yl)tetrahydro-2H-pyran-3,5-diol] | 800 nM | 
CS(=O)(=O)N1CC(O)([C@@H](S[C@@H]2O[C@H](CO)[C@H](O)[C@H](n3cc(-c4cc(F)c(F)c(F)c4)nn3)[C@H]2O)c2ccccc2C(F)(F)F)C1 [Example 2..57.112S., (2S,3R,4S,5R,6R)-2-(((S)-(3-Hydroxy-1-(methylsulfonyl)azetidin-3-yl)(2-(trifluoromethyl)phenyl)methyl)thio)-6-(hydroxymethyl)-4-(4-(3,4,5-trifluorophenyl)-1H-1,2,3-triazol-1-yl)tetrahydro-2H-pyran-3,5-diol] | 5800 nM | 
